Results taken from PubChem BioAssay AID857 (Vanderbilt High Throughput Screening Facility, 2007).
The source made the active and inactive calls.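 Rule for the calls: active = a full or partial dose-response curve in at least two of three replicate runs; inactive = the rest.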

Molecular target: D(1B) dopamine receptor (Homo sapiens) (UniProt P21918)
Test: dopamine D5 receptor modulation at EC30 dopamine, dose response, selectivity assay for D1 allosteric modulator project, cell-based, HEK293, CRE-luciferase, luminescence (AID 857);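 note: HEK 293 cells expressing human D5 with a CRE-driven luciferase reporter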

Chain of D(1B) dopamine receptor (Homo sapiens) (P21918 whole entry, looked up): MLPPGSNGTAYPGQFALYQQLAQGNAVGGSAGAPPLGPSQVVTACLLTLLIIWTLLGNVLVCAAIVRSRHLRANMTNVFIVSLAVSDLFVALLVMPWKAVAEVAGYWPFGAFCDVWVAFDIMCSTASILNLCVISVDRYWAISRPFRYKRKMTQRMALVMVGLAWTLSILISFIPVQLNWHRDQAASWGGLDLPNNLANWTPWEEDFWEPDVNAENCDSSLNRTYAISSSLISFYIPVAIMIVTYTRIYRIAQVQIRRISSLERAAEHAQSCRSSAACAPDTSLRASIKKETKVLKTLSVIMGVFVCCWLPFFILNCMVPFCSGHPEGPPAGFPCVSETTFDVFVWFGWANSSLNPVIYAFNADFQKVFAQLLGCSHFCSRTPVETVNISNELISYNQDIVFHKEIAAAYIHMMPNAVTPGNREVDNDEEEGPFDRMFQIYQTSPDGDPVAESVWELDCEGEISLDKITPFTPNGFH

Row | SMILES | outcome
1 | CCCC(=O)Nc1ccc(NC(=O)C2CC2)cn1 | inactive
2 | CC1CCCCN1C(=O)CSc1nc(C2CC2)nc2c1cnn2-c1ccccc1 (stereo unspecified) | inactive
3 | Cn1c(SCc2ccon2)nc2ccccc2c1=O | inactive
4 | CCc1nc2ccccc2c(C(=O)OCC(=O)NCc2ccco2)c1C | inactive
5 | CCCCn1c(O)c(C(C)=NCc2ccc(F)cc2)c(=O)[nH]c1=O | inactive
6 | O=C(c1ccco1)N1CCN(c2nc(C3CC3)nc3sc4c(c23)CCCC4)CC1 | inactive
7 | COC(=O)c1c(-c2ccc(F)cc2)csc1NC(=O)c1ccco1 | inactive
8 | CCCCNC(=O)c1ccc2nc(-c3ccco3)c(-c3ccco3)nc2c1 | inactive
9 | COc1ccc(-n2nc3ccccc3n2)cc1 | inactive
10 | CC(=O)c1cc(C#N)c(SCc2ccncc2)nc1C | inactive
11 | COc1ccc(S(=O)(=O)N2CCSC2c2ccc(OC)c(OC)c2)cc1 (stereo unspecified) | inactive
12 | N#CCCN1CCN(S(=O)(=O)c2ccc(S(=O)(=O)NC3CCCCC3)cc2)CC1 | inactive
13 | CCSc1nc(-c2ccco2)ccc1C#N | inactive
14 | Cc1cc(-c2cccs2)c2c(n1)sc1c(=O)[nH]c(=O)[nH]c12 | inactive
15 | CCOc1ccccc1NC(=O)CN(C)S(=O)(=O)c1cccc2nsnc12 | inactive
16 | CCOC(=O)c1ccc(Oc2cc(C)nc(SC)n2)cc1 | inactive
17 | CC(=O)c1nn(-c2cccc(Cl)c2)cc1C(=O)c1ccco1 | inactive
18 | CCCc1cc(C(=O)Nc2sc(C(C)=O)c(C)c2C(=O)OCC)no1 | inactive
19 | CCn1nc(C(=O)OCC(=O)N2c3ccccc3CC2C)c2ccccc2c1=O (stereo unspecified) | inactive
20 | COC(=O)c1ccc(C(=O)OC)c(NC(=O)COC(=O)C23CC4CC(CC(O)(C4)C2)C3)c1 | inactive
21 | CC1=CC(C)(C)N=C(NC#N)N1 | inactive
22 | Fc1ccc(-c2cc(C(F)(F)F)nc(-n3cncn3)n2)cc1 | inactive
23 | CCOc1ccc(N/C(SC)=C(/C#N)C(N)=O)cc1 | inactive
24 | COC(=O)/C(=C1/Oc2cc3c(cc2S1)OCO3)C(F)(F)F | inactive

Row | SMILES | outcome
25 | CC(C)C1C2=C(CC(C)(C)CC2=O)ON1c1ccccc1 (stereo unspecified) | inactive
26 | CCOc1ncccc1C(=O)OCc1nnc(-c2ccccc2)o1 | inactive
27 | Cc1cc(C)nc(SCC(=O)Nc2ncc3c(n2)CC(C)(C)CC3=O)n1 | inactive
28 | Cn1c2c(c3ccccc31)CC/C2=N\O | inactive
29 | N#Cc1nc(-c2cccs2)oc1NCC1CCCO1 (stereo unspecified) | inactive
30 | CCC1(CC)C(=O)NC(=NCCc2c[nH]c3ccccc23)NC1=O | inactive
31 | Cc1cc(C)c(C#N)c(SCc2ccc(C#N)cc2)n1 | inactive
32 | CC(C)Cn1c(=O)c2c(c3ccccc31)OC(C)C(=O)N2 (stereo unspecified) | inactive
33 | CCC(=O)Nc1nc2c(OC)ccc(OC)c2s1 | inactive
34 | COc1ccc(-c2cc(=O)oc3c(C)c(O)c(CN(C)C)cc23)cc1 | inactive
35 | CCOC(=O)c1c(-c2cccs2)csc1NC(=O)CSc1ncn[nH]1 | inactive
36 | COc1nc(C)ccc1-c1noc(-c2ccncc2)n1 | inactive
37 | c1ccc(-c2nn3c(-c4ccccc4)nnc3s2)cc1 | inactive
38 | CN1CCN(CC(O)COCc2ccc3c(c2)OCO3)CC1 (stereo unspecified) | inactive
39 | COc1ccc(C(=O)Nc2nnc(Cc3cccs3)s2)cc1OC | inactive
40 | O=C(CC1SC(=NC2CCCCC2)NC1=O)Nc1ccccc1 (stereo unspecified) | inactive
41 | CC(=O)Oc1c(Cl)c(N2CCOCC2)c(OC(C)=O)c2ccccc12 | inactive
42 | OCCNc1ncnc2c1c(-c1ccccc1)c(-c1ccccc1)n2Cc1ccco1 | inactive
43 | c1ccc(C2=Nn3c(nnc3-c3ccncc3)SC2)cc1 | inactive
44 | Cc1noc(C)c1CSc1ncnc2ccccc12 | inactive
45 | CSC1=NCCN1C(=O)Cc1cccs1 | inactive
46 | Cc1cc(C)n(CC(=O)n2c3c(c4ccccc42)CCCC3)n1 | inactive
47 | NC(=O)COc1ccc(NC(=O)OCc2ccccc2)cc1 | inactive
48 | CCC(=O)Nc1cccc(NC(=O)c2cc3ccccc3o2)c1 | inactive

Row | SMILES | outcome
49 | O=C(CCNS(=O)(=O)c1ccc2c(c1)CCC(=O)N2)NCc1ccc2c(c1)OCO2 | inactive
50 | Cc1nc2ccc(CCO)cc2s1 | inactive
51 | CCOC(=O)c1c(C)c(C(=O)NCc2ccc3c(c2)OCO3)c(C)n1C | inactive
52 | CCOC(=O)N1CCN(C(=O)CCCn2c(=S)[nH]c3ccccc3c2=O)CC1 | inactive
53 | CCCCSc1nc2c(cnn2-c2ccc(F)cc2)c(=O)[nH]1 | inactive
54 | CCOc1ccc(-c2noc(COC)n2)cc1OC | inactive
55 | COc1ccc(C2CC(=O)Nc3ccccc3S2(=O)=O)cc1OC (stereo unspecified) | inactive
56 | O=C(Nc1cc(Cl)ccc1N1CCOCC1)c1cnccn1 | inactive
57 | CCOC(=O)Cc1[nH]nc2c1C(c1cccc(OC)c1OC)C(C#N)=C(N)O2 (stereo unspecified) | inactive
58 | Cc1ccc(S(=O)(=O)N2CCN(C(=O)COC(=O)c3cc(C)oc3C)CC2)cc1 | inactive
59 | CCC(Sc1nc(=O)cc(N)n1CCc1ccccc1)C(=O)Nc1ccccc1C#N (stereo unspecified) | inactive
60 | CCc1ccc(C2=Nn3c(nnc3-c3cccs3)SC2)cc1 | inactive
61 | O=C(CCSc1nc2ccccc2o1)N1CCOCC1 | inactive
62 | O=c1c2ccccc2nc(SCc2cccc(F)c2)n1Cc1ccco1 | inactive
63 | CCCc1nc2sc3ccccc3c(=O)c2c(=O)n1Cc1ccco1 | inactive
64 | CCn1c(=O)c(C(=O)NCc2cccnc2)c(O)c2ccccc21 | inactive
65 | O=C1CC(c2ccsc2)c2cc3c(cc2N1)OCCO3 (stereo unspecified) | inactive
66 | COc1ccccc1-c1nnc2n1N=C(C(C)(C)C)CS2 | inactive
67 | Cc1ccc(Cn2c(-n3nc(C)cc3C)nc3c2c(=O)[nH]c(=O)n3C)cc1 | inactive
68 | Cc1c(C)c2ccc(OC3CCCCC3=O)cc2oc1=O (stereo unspecified) | inactive
69 | COc1ccc(C2CC(c3ccc(Cl)cc3Cl)Nc3nc(N)nn32)cc1 (stereo unspecified) | inactive
70 | COc1ccc(-c2noc(-c3ccco3)n2)cc1OC | inactive
71 | CCC(C)Nc1nc(OC)nc(N(C)C#N)n1 (stereo unspecified) | inactive
72 | CSc1nc2c(c(=O)n1-c1ccccc1)SCC2 | inactive

Row | SMILES | outcome
73 | CCCNc1nc2c(c(=O)[nH]c(=O)n2C)n1CCc1ccccc1 | inactive
74 | COc1nc(NCc2ccc(Cl)cc2)nc(OC)n1 | inactive
75 | Cc1cc2cc(CN(CCN3CCOCC3)C(=O)Nc3ccccc3F)c(=O)[nH]c2cc1C | inactive
76 | COC(=O)c1ccccc1NC(=O)c1ccc2c(c1)OCCO2 | inactive
77 | COc1ccccc1-n1c(=O)[nH]c2c(C(N)=O)nc(CC(C)C)nc21 | inactive
78 | N#CC1=C(N)Oc2n[nH]c(-c3cccs3)c2C1c1ccsc1 (stereo unspecified) | inactive
79 | Nc1nc(CN2CCN(c3ccccc3)CC2)nc(N2CCCc3ccccc32)n1 | inactive
80 | CC(C)Sc1nc2c(c(=O)n1C)SC(C)C2 (stereo unspecified) | inactive
81 | COc1ccc2c(c1)C(=O)N(c1ccccc1OC)C(=O)C2(C)C | inactive
82 | COC(=O)c1c(NC(=O)Cc2cccs2)sc2c1CCC(C)C2 (stereo unspecified) | inactive
83 | Brc1ccc(-c2nn3c(Cc4ccccc4)nnc3s2)o1 | inactive
84 | COc1ccc(OC)c(/C=N/c2oc(-c3ccco3)c(-c3ccco3)c2C#N)c1 | inactive
85 | Nc1ncnc2c1ncn2CCOc1ccccc1 | inactive
86 | CCc1nn(CCCC(=O)N2CCc3ccccc3C2)c(=O)c2cc3occc3n12 | inactive
87 | C/C(N)=C(/C#N)C(=O)CSc1nnc(SCc2ccc(Cl)cc2)s1 | inactive
88 | COc1ccc(-c2noc(CCN3C(=O)c4ccccc4C3=O)n2)cc1OC | inactive
89 | NC(=O)c1cc(-c2ccccc2)nc(N2CCCCCC2)n1 | inactive
90 | CSc1nncc(-c2ccc(F)c(F)c2)n1 | inactive
91 | COCCNC(=O)c1c(NC(=O)c2ccco2)n(Cc2ccccc2)c2nc3ccccc3nc12 | inactive
92 | Cc1ccc(CCNS(=O)(=O)c2cnc[nH]2)cc1 | inactive
93 | COc1cc2[nH]c(=S)n(C3CCCC3)c(=O)c2cc1OC | inactive
94 | CCOC(=O)Nc1sc(C(=O)N(CC)CC)c(C)c1C(=O)OCC | inactive
95 | Cn1c(Cn2c(=O)sc3ccccc32)nnc1SCC(=O)N1CCOCC1 | inactive
96 | CCSc1nc2c(c(=O)n1Cc1ccccc1)SC(C)C2 (stereo unspecified) | inactive
